Source: PMC11864979, “First-in-class ultralong-target-residence-time p38α inhibitors as a mitosis-targeted therapy for colorectal cancer” (Nature Cancer, 2025)
Where two headings read alike, the source gives them in different places.

Experiments:
Experiment in all cases: selectivity profiling in a panel of 340 wild-type kinases (Reaction Biology Europe)
Type in all cases: binding
[1] = molecular target: T1, 340 wild-type kinases (Homo sapiens, UniProt P68400)
T1 construct: purchased Reaction Biology Europe

[2] = molecular target: T2, 340 wild-type kinases (Homo sapiens, UniProt Q00534)
T2 construct: purchased Reaction Biology Europe

[3] = molecular target: T3, 340 wild-type kinases (Homo sapiens, UniProt Q8IWQ3)
T3 construct: purchased Reaction Biology Europe
T3 sequence (Q8IWQ3 1-736): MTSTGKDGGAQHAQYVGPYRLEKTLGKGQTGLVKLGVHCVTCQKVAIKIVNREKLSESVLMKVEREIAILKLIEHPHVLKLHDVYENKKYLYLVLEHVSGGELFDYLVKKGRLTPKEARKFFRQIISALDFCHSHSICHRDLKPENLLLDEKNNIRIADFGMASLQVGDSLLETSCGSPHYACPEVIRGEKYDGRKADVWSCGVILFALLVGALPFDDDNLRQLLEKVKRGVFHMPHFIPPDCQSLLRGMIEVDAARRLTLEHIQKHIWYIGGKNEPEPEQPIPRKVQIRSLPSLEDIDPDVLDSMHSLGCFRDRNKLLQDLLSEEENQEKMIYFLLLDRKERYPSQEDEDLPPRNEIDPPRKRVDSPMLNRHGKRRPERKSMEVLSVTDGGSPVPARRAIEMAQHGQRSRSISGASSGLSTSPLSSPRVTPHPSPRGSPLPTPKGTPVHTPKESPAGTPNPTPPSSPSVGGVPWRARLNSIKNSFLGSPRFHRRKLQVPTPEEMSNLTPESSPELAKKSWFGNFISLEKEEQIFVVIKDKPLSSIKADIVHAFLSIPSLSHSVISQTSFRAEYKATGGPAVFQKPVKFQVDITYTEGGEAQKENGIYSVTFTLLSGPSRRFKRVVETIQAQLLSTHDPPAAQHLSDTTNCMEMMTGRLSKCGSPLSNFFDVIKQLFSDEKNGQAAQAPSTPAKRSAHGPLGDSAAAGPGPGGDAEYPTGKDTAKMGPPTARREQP

[4] = molecular target: T4, 340 wild-type kinases (Homo sapiens, UniProt Q96GD4)
T4 construct: purchased Reaction Biology Europe

[5] = molecular target: T5, 340 wild-type kinases (Homo sapiens, UniProt P41743)
T5 construct: purchased Reaction Biology Europe
T5 sequence (P41743 1-596): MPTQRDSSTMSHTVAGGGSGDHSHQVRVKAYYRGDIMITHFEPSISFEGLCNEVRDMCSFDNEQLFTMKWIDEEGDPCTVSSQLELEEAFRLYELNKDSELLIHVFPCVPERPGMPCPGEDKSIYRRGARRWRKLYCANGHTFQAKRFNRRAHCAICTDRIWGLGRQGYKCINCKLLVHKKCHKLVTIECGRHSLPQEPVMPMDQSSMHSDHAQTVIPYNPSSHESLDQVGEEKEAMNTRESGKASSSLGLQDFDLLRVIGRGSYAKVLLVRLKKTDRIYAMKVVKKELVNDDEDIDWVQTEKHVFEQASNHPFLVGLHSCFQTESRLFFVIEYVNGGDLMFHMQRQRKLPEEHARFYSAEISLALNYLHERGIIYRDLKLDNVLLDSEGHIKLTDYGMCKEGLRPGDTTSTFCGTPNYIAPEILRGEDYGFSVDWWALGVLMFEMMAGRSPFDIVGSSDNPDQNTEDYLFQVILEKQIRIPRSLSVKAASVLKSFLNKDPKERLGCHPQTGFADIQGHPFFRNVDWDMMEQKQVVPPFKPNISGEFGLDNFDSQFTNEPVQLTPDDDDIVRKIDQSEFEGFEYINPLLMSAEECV

[6] = molecular target: T6, 340 wild-type kinases (Homo sapiens, UniProt Q96L34)
T6 construct: purchased Reaction Biology Europe
T6 sequence (Q96L34 1-752): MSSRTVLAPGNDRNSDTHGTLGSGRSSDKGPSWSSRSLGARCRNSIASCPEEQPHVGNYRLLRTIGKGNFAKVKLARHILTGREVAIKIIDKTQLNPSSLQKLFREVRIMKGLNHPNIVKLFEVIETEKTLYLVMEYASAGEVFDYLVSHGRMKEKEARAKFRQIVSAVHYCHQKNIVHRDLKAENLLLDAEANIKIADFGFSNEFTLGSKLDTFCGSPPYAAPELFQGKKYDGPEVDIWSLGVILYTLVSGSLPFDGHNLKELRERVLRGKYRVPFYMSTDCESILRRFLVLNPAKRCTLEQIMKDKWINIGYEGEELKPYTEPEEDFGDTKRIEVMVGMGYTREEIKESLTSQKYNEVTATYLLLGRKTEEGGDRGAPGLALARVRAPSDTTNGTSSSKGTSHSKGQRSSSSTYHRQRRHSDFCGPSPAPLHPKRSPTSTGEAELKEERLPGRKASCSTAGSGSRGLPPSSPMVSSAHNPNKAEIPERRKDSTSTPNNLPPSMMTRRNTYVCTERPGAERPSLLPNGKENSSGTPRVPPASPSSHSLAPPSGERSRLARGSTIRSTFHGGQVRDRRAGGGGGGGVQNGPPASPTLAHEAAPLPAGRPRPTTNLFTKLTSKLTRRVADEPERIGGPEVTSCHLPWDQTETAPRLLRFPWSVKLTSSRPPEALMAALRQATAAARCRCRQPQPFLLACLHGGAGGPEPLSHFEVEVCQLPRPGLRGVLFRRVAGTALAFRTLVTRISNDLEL

[7] = molecular target: T7, 340 wild-type kinases (Homo sapiens, UniProt O75582)
T7 construct: purchased Reaction Biology Europe
T7 sequence (O75582 whole entry): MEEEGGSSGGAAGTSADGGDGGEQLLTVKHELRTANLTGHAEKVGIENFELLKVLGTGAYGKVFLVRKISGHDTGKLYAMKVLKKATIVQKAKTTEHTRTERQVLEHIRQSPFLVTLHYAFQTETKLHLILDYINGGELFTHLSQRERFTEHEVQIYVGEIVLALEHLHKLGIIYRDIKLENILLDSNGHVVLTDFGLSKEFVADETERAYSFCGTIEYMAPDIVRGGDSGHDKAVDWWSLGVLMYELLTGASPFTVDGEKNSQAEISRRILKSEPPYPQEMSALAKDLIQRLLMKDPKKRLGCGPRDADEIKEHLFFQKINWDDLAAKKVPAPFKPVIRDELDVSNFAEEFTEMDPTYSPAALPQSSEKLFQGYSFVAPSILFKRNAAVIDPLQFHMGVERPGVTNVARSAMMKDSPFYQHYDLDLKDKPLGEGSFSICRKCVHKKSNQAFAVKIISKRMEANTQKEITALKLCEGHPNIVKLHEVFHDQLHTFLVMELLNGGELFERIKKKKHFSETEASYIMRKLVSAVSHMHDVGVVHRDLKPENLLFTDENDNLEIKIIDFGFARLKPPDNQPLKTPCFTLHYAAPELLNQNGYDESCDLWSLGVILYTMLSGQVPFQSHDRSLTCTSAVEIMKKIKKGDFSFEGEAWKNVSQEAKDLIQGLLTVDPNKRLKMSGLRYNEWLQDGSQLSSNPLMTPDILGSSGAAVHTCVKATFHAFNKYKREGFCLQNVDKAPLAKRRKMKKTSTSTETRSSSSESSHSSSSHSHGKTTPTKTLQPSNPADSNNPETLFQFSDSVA

T4 sequence (Q96GD4 whole entry): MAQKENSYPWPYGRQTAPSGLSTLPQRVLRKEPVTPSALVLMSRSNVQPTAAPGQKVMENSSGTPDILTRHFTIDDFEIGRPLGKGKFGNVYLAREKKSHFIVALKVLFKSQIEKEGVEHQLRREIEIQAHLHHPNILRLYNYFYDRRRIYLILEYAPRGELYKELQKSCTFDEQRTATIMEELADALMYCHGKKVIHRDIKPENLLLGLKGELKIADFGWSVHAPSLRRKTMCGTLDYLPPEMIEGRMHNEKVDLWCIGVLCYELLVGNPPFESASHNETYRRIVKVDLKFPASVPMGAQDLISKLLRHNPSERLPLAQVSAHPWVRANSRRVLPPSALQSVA
T1 sequence (P68400 whole entry): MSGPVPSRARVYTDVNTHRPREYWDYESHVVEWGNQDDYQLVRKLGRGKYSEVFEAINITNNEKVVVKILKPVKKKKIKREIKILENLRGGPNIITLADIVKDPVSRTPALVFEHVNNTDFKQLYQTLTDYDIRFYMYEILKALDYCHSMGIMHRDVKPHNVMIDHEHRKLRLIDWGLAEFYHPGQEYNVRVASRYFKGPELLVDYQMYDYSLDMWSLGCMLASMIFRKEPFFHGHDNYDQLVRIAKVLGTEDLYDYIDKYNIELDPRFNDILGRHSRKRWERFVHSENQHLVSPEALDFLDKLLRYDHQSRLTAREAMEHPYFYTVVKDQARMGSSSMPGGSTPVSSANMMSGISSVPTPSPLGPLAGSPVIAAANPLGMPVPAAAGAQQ
T2 sequence (Q00534 whole entry): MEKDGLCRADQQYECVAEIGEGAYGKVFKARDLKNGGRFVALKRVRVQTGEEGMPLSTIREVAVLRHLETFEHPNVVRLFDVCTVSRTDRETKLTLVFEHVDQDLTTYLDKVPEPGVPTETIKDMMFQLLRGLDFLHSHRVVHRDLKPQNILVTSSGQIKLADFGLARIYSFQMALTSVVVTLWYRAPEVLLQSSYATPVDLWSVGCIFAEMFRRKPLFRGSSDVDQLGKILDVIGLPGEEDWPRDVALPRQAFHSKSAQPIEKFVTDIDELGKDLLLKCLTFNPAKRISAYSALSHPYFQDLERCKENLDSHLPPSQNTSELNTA

CNC(=O)c1ccc2c(c1)C(=O)c1ccc(Nc3ccc(F)c(NC(=O)C4CC4)c3)cc1CC2 [Compound 2015]
remaining activity at 0.2 µM ([1]; 0.2 µM 2015, read-out: CK2alpha1 residual activity): 98.8% | remaining activity at 1 µM ([1]; 1 µM 2015, read-out: CK2alpha1 residual activity): 95.8% | remaining activity at 0.2 µM ([1]; CK2alpha1, 0.2 µM, read-out: residual activity): 98.8% | remaining activity at 1 µM ([1]; CK2alpha1, 1 µM, read-out: residual activity): 95.8% | remaining activity at 0.2 µM ([2]; 0.2 µM 2015, read-out: CDK6/CycD1 residual activity): 97.6% | remaining activity at 0.2 µM ([2]; 0.2 µM 2015, read-out: CDK6/CycD2 residual activity): 88.8% | remaining activity at 0.2 µM ([2]; 0.2 µM 2015, read-out: CDK6/CycD3 residual activity): 93.3% | remaining activity at 1 µM ([2]; 1 µM 2015, read-out: CDK6/CycD1 residual activity): 93.4% | remaining activity at 1 µM ([2]; 1 µM 2015, read-out: CDK6/CycD2 residual activity): 91.1% | remaining activity at 1 µM ([2]; 1 µM 2015, read-out: CDK6/CycD3 residual activity): 86.4% | remaining activity at 0.2 µM ([2]; CDK6/CycD1, 0.2 µM, read-out: residual activity): 97.6% | remaining activity at 1 µM ([2]; CDK6/CycD1, 1 µM, read-out: residual activity): 93.4% | remaining activity at 0.2 µM ([2]; CDK6/CycD2, 0.2 µM, read-out: residual activity): 88.8% | remaining activity at 1 µM ([2]; CDK6/CycD2, 1 µM, read-out: residual activity): 91.1% | remaining activity at 0.2 µM ([2]; CDK6/CycD3, 0.2 µM, read-out: residual activity): 93.3% | remaining activity at 1 µM ([2]; CDK6/CycD3, 1 µM, read-out: residual activity): 86.4% | remaining activity at 0.2 µM ([3]; 0.2 µM 2015, read-out: BRSK2 residual activity): 103% | remaining activity at 1 µM ([3]; 1 µM 2015, read-out: BRSK2 residual activity): 101% | remaining activity at 0.2 µM ([3]; BRSK2, 0.2 µM, read-out: residual activity): 103% | remaining activity at 1 µM ([3]; BRSK2, 1 µM, read-out: residual activity): 101% | remaining activity at 0.2 µM ([4]; 0.2 µM 2015, read-out: AuroraB residual activity): 120% | remaining activity at 1 µM ([4]; 1 µM 2015, read-out: AuroraB residual activity): 112% | remaining activity at 0.2 µM ([4]; AuroraB, 0.2 µM, read-out: residual activity): 120% | remaining activity at 1 µM ([4]; AuroraB, 1 µM, read-out: residual activity): 112% | remaining activity at 0.2 µM ([5]; 0.2 µM 2015, read-out: PKCiota residual activity): 104% | remaining activity at 1 µM ([5]; 1 µM 2015, read-out: PKCiota residual activity): 92% | remaining activity at 0.2 µM ([5]; PKCiota, 0.2 µM, read-out: residual activity): 104% | remaining activity at 1 µM ([5]; PKCiota, 1 µM, read-out: residual activity): 92% | remaining activity at 0.2 µM ([6]; 0.2 µM 2015, read-out: MARK4 residual activity): 94.8% | remaining activity at 1 µM ([6]; 1 µM 2015, read-out: MARK4 residual activity): 84.1% | remaining activity at 0.2 µM ([6]; MARK4, 0.2 µM, read-out: residual activity): 94.8% | remaining activity at 1 µM ([6]; MARK4, 1 µM, read-out: residual activity): 84.1% | remaining activity at 0.2 µM ([7]; 0.2 µM 2015, read-out: RPS6KA5 residual activity): 93.6% | remaining activity at 0.2 µM ([7]; RPS6KA5, 0.2 µM, read-out: residual activity): 93.6% | remaining activity at 1 µM ([7]; RPS6KA5, 1 µM, read-out: residual activity): 90.2%
